# Measured values taken from the NIST ThermoML archive (doi:10.1021/je050455+).
# Numbers after ± are expanded uncertainties.
# Details: 293.15 K; 101.33 kPa; Liquid; Vibrating tube method
row,mass density [kg/m3],Structure (SMILES)
1,1360 ± 20,"Cc1n(CCO)cc[n+]1C.F[B-](F)(F)F [1-(2-hydroxyethyl)-2,3-dimethylimidazolium tetrafluoroborate]"
2,1330 ± 20,C[n+]1ccn(CCO)c1.F[B-](F)(F)F [1-(2-hydroxyethyl)-3-methylimidazolium tetrafluoroborate]
